Laboratory results reported in US20030013136A1, “Human KCR1 regulation of HERG potassium channel block” (priority 2000, published 2003).

Legend:
HERG = HERG (Homo sapiens, UniProt Q12809); conditions: 20 min
Description: (§1) The rat KCR1 cDNA was provided by Dr. Haruhiro Higashida, Kanazawa University, Japan. […] MiRP1 cDNA was provided by Dr. Steve Goldstein, (Yale University) in vector pCl-neo (Promega of Madison, Wis.).
(§2) Chinese hamster ovary K1 (CHO-K1) cells were obtained from the American Type Culture Collection (Rockville, Md.) and cultured in Ham's F-12 media (Gibco-BRL of Grand Island, N.Y.) supplemented with 10% fetal bovine serum and 1% pen-strep in a humidified, 5% CO2 incubator at 37° C. CHO-K1 cells were transiently transfected using the Lipofectamine transfection reagents and method (Gibco-BRL). When studying HERG alone or HERG+MiRP1, cells were cotransfected with pGFP-IRS (without KCR1). For experiments examining HERG+KCR1, or HERG+KCR1+MiRP1, GFP expression was obtained via the KCR1-containing pGFP-IRS plasmid. In all cases, cells displaying green fluorescence 48 to 72 hours after transfection were subjected to electrophysiologic analysis.
(§3) Potassium currents were recorded at room temperature (20-22° C.) using the whole-cell patch clamp technique. […] Drug effects were recorded in cells following a pre-drug period where control data were obtained (during pulsing), and a 4 minute drug wash-in period throughout which the cell was held at −80 mV.

HERG+KCR1 = HERG+KCR1 (Homo sapiens, UniProt Q12809); conditions: 20 min
Sequence of HERG+KCR1 (Q12809 whole entry): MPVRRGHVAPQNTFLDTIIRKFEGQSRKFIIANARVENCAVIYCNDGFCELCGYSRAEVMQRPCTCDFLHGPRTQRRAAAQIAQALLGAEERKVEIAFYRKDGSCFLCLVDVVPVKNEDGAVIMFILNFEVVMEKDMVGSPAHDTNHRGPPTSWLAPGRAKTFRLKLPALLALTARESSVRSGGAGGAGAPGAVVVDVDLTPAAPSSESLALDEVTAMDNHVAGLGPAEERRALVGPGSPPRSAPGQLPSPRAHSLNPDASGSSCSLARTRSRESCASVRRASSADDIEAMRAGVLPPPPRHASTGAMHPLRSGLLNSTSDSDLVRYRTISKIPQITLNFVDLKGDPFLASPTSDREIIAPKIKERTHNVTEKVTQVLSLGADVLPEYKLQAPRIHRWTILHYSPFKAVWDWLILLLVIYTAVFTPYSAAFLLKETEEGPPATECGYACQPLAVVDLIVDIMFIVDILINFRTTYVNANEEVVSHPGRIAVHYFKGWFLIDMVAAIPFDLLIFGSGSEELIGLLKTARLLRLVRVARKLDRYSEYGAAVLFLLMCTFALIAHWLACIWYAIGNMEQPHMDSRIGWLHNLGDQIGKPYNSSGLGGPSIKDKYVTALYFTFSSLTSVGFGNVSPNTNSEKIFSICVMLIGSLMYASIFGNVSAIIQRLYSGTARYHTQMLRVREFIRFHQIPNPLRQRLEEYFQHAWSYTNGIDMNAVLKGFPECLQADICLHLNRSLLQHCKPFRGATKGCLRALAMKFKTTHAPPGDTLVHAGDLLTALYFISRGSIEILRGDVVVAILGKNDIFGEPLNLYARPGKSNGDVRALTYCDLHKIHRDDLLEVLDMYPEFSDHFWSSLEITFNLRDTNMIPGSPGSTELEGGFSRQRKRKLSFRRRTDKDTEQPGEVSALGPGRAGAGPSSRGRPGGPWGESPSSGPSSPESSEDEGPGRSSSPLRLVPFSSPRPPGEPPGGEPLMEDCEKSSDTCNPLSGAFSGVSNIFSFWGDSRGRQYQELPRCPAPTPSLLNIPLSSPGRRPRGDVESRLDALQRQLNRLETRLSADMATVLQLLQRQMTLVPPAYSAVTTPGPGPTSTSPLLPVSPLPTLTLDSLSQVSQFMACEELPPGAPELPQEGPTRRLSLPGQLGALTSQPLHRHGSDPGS
Description: as §1, §2, §3

[1] = target: HERG/MiRP1 complex (human); assay: cell-based or functional assay
Sequence of HERG/MiRP1 complex (human) (A5H1P7 whole entry, one chain of several): as the sequence (Q12809 whole entry) above

Sequence of HERG (Q12809 whole entry): as above

| Compound | HERG tail current remaining, % of the pre-drug control (HERG) [%] | HERG tail current remaining, % of the pre-drug control (HERG+KCR1) [%] | fast time constant of deactivation at -120 mV, HERG+KCR1+MiRP1 (whole-cell patch clamp, CHO-K1 cells) [1] | slow time constant of deactivation at -120 mV, HERG+KCR1+MiRP1 (whole-cell patch clamp, CHO-K1 cells) [1] |
| --- | --- | --- | --- | --- |
| CC(C)NC[C@@H](O)c1ccc(NS(C)(=O)=O)cc1 [d-sotalol] | 54±9 | 95±6 |  |  |
| rat KCR1 (from UniProt O88788 1-474) |  |  | 22.5 | 251 |
